From publication PMC9152369, “Integrated UPLC-Q-TOF-MS/MS and Network Pharmacology Approach to Investigating the Metabolic Profile of Marein of Coreopsis tinctoria Nutt” (Evidence-based Complementary and Alternative Medicine : eCAM, 2022)
“And” between values parts separate entries of the source, which are not always exact repeats. Identical values can stand only once. “Also recorded” adds a separate entry of the source. Blank lines part the entries; values can stand above or below the compound they belong to.

Legend:
[1] = Detection of marein and metabolites in rat plasma and urine after oral administration (UPLC-Q-TOF-MS/MS); type: in vivo, Sprague–Dawley rats; design: key to Location (matrix in which the metabolite was detected): P: plasma; U: urine; settings: for Location (matrix in which the metabolite was detected): oral gavage of marein 200 mg/kg, plasma 0-1 h, urine 24 h
Procedure: (§1) Forty-eight healthy male Sprague–Dawley rats, SPF grade, weighing 250 ± 10 g, were purchased from Huafukang Laboratory Animal Technology Co. Ltd. (Beijing, China). Before use, all animals were reared for 5 days at a constant temperature of 25°C, a humidity of 40–60%, and a 12-hour light-dark cycle.
After adaptive feeding for 1 week, 24 SD rats were randomly divided into 4 groups: blank blood sample group, blank urine group, marein blood sample group, and marein urine group. The experimental animals were fasted 12 hours before the administration and free drinking water. Marein was dissolved with an appropriate amount of CMC-Na solution and was administered to SD rats by gavage at a dose of 200 mg/kg. The blank blood sample group was given an equal volume of CMC-Na solution.
(§2) Blood samples were collected from the fundus venous plexus of rats at 0, 0.08, 0.25, 0.5, and 1 h before and after gavage and injection. The blood samples were centrifuged (9,900 g, 10 min) to obtain plasma samples. All plasma samples were stored at −80°C until they were processed and analyzed.
(§3) Urine samples were collected for 24 hours by gavage and injection in a metabolic cage. All urine samples were stored at −80°C until they were processed and analyzed.
(§4) Take 100 μL of plasma from each group at the same time point and combine, add 900 μL of acetonitrile, vortex for 3 min, and centrifuge (4°C, 19,500 g) for 10 min. Take the supernatant, blow-dry, and concentrate and then add 900 μL of acetonitrile. Vortex for 3 minutes and then centrifuge (4°C, 19,500 g) for 10 minutes. Take the supernatant, dry it with nitrogen, and concentrate. Add 100 μL of 50% methanol to reconstitute the residue (methanol:water = 1:1), vortex, and centrifuge (4°C, 19,500 g) for 10 minutes. The supernatant was taken and analyzed by UPLC-Q-TOF-MS/MS. The blank plasma sample was processed in the same way.
(§5) Take 400 μL of urine, add 800 μL of methanol, vortex for 3 minutes, and centrifuge (4°C, 19,500 g) for 10 minutes. Take the supernatant, blow-dry, and concentrate and then add 800 μL of methanol to reconstitute, vortex for 3 minutes, and centrifuge (4°C, 19,500 g) for 10 minutes. In parallel, the supernatants were combined, dried, concentrated with nitrogen, and finally reconstituted with 100 μL 50% methanol (methanol:water = 1:1). The supernatant was analyzed by UPLC-Q-TOF-MS/MS. The blank urine sample was processed in the same way.
Used UPLC-Q-TOF-MS/MS 9030 system (Shimadzu, Japan), chromatography column: Shim-pack GISS C18 column (100 × 2.1 mm, 1.9 μm). […]
(§6) The data obtained by UPLC-Q-TOF-MS/MS were analyzed with Formula Predictor Server software. Target fragments are analyzed by ACD/Labs software accurate mass calculator (Shimadzu City, Japan).

[2] = Detection of marein and metabolites in rat plasma and urine after tail vein injection (UPLC-Q-TOF-MS/MS); type: in vivo, Sprague–Dawley rats; design: key to Location (matrix in which the metabolite was detected): P: plasma; U: urine; settings: for Location (matrix in which the metabolite was detected): tail vein injection of marein 10 mg/kg, plasma 0-1 h, urine 24 h; for prototype components after tail vein injection: tail vein injection 10 mg/kg
Procedure: as §1
After adaptive feeding of 24 SD rats for 1 week, they were randomly divided into 4 groups, namely: blank blood sample group, blank urine group, marein blood sample group, and marein urine group. The experimental animals were fasted 12 hours before the administration and free drinking water. Marein was dissolved in appropriate amounts of saline and administered to SD rats via tail vein injection at a dose of 10 mg/kg. The blank group was injected with an equal volume of saline through the tail vein.
as §2, §3, §4, §5
(§7) Used UPLC-Q-TOF-MS/MS 9030 system (Shimadzu, Japan), chromatography column: Shim-pack GISS C18 column (100 × 2.1 mm, 1.9 μm). Mobile phase: A phase 0.1% formic acid water, B phase acetonitrile, gradient elution, elution gradient: 0∼1 min, 5∼10% B; 1∼2 min, 10% B; 2∼3 min, 10∼15% B; 3∼5 min, 15∼20% B; 5∼11 min, 20∼40% B; 11∼13 min, 40∼80% B; 13∼15 min, 80∼95% B; 15∼17 min, 95% B; 17∼20 min, 5% B. Flow rate: 0.3 mL/min; column temperature: 40°C.
(§8) MS operation conditions were as follows. The Q-TOF-MS spectrometer was configured with an electrospray ion source (ESI) operating in the negative and positive ion modes. Ion source interface voltage is −3.0 Kv. Nitrogen is used as the drying gas and the atomizing gas. The drying gas flow rate is set to 10 L/min, and the atomizing gas flow rate is set to 3.0 L/min. Air is used as heating gas, and the flow rate is set to 10 L/min; argon is used as collision gas; desolvent tube temperature is 250°C; heating block temperature is 400°C; and interface temperature is 300°C. Scan modes are MS Scan (m/z 100–500; 500–1,000) and MS/MS (m/z 50–500; 50–1,000). The collision energy (CE) is 35 ± 17 V.
as §6

[3] = Metabolic stability of marein in rat liver microsome incubation; type: in vitro ADME; settings: for Area% (remaining percentage): 37°C, NADPH
Procedure: The total volume of the incubation system is 500 μL, including phosphate buffer (0.1 M, pH 7.4) 470 μL, and NADPH generating system 30 μL (Solution A: 25 μL and Solution B: 5 μL). The process is completed on an ice bath.
Marein blank control group: Take the above incubation system, add 5 μL of aqueous solution to an ice bath, incubate at 37°C for 5 min, and then add 15 μL of liver microsomes to the ice bath. After gently mixing the incubation system by hand, start the incubation at 37°C in a water bath. The incubation time is 0, 5, 15, 30, 45, 60, 90, and 120 min, and each sample is paralleled 3 times. When the reaction is complete, stop the reaction with the same volume of ice acetonitrile to completely precipitate the protein, centrifuge at 4,200 g for 10 min, aspirate the supernatant and centrifuge at 19,500 g for 10 min, and inject 2 μL for analysis.
Marein inactivated liver microsomes group: First inactivate liver microsomes, take the incubation system, add 5 μL of the marein reference substance stock solution on an ice bath, incubate at 37°C for 5 min, and then add 15 μL of inactivation to the ice bath. The following procedures were similar to the blank control group.
Marein liver microsomes group: Take the incubation system, add 5 μL of the marein reference substance stock solution to an ice bath, incubate at 37°C for 5 min, and then add 15 μL of liver microsomes to the ice bath. The following operation was the same as the blank control group.
as §7, §8
In the study of metabolism in vivo, the injection volume was 5 μL, while that in vitro metabolism was 2 μL.
In the liver microsomes study, the 0 min peak area of marein was regarded as 100%, and other time points were compared with the 0 min peak area to obtain the remaining percentage (area%). According to the natural logarithm of area% and incubation, the time slope k was obtained by linear regression. According to formula (1), the half-life t1/2/min of marein in liver microsomes could be obtained. According to formulas (2)–(5), the half-lives in liver microsomes, intrinsic clearance rate CLint, in vivo intrinsic clearance rate CL′int, liver clearance rate CLH, and liver extraction rate ER were calculated.(1) t1/2=−0.693/k, (2) CLint=0.693/t1/2incubationmL/microsomesmg, (3) CLint′=0.693/t1/2·incubationmL/microsomesmg·Liverg/BWkg·microsmesmg/Liverg, (4) CLH=Q·CLint′/Q+CLint′, (5) ER=CLH/Q.
The physical and chemical parameters: The liver tissue per kilogram of body weight for rat (Liver (g)/BW (kg)) was 40 g. Q is hepatic blood flow (66 ml/min/kg for rat), and CL′int is the intrinsic clearance. The microsomal protein per gram of liver tissue (microsomes (mg)/liver (g)) was 45 mg.

[4] = design: method as in PMID 27387397; settings: healthy volunteers, tea of C. tinctoria; cited from earlier work

Structure (SMILES): O=C1C[C@@H](c2ccc(O)c(O)c2)Oc2c1ccc(O[C@@H]1O[C@H](CO)[C@@H](O)[C@H](O)[C@H]1O)c2O [M′1, flavanomarein]
- prototype components after tail vein injection [2]: detected
- Location (matrix in which the metabolite was detected) [2]: P, U

Structure (SMILES): O=C(/C=C/c1cccc(O)c1)c1ccc(O[C@@H]2O[C@H](CO)[C@@H](O)[C@H](O)[C@H]2O)c(O)c1O [M′11]
- Location (matrix in which the metabolite was detected) [2]: U

Structure (SMILES): O=C(/C=C/c1ccc(O)cc1)c1ccc(O[C@@H]2O[C@H](CO)[C@@H](O)[C@H](O)[C@H]2O)c(O)c1O [M′12]
- Location (matrix in which the metabolite was detected) [2]: U

Structure (SMILES): O=C(/C=C/c1ccc(O)c(O)c1)c1ccc(O[C@@H]2O[C@H](CO)[C@@H](O)[C@H](O)[C@H]2O)cc1O [M′13]
- Location (matrix in which the metabolite was detected) [2]: P, U

Structure (SMILES): O=C(CCc1ccccc1)c1ccc(O[C@@H]2O[C@H](CO)[C@@H](O)[C@H](O)[C@H]2O)c(O)c1O [M′17]
- Location (matrix in which the metabolite was detected) [2]: U

Structure (SMILES): O=C(/C=C/c1ccc(O)c(O)c1)c1ccc(O[C@@H]2O[C@H](CO)[C@@H](O)[C@H](O)[C@H]2O)c(O)c1O [marein]
- CLint (intrinsic clearance rate) ([3]; SD rat liver microsomes): 0.0065 mL·(min·mg protein)^−1
- t1/2 (in vitro metabolic half-life in liver microsomes) ([3]; SD rat liver microsomes): 2.961538 h
- ER (liver extraction rate) ([3]; SD rat, ER=CLH/Q): 0.15 and 0.1506
- CLH (liver clearance rate) ([3]; SD rat, Q 66 ml/min/kg): 9.9382 mL·min/kg
- CL′int (in vivo intrinsic clearance rate) ([3]; SD rat, scaled with 40 g liver/kg, 45 mg microsomal protein/g liver): 11.7000 mL·min/kg
- half-life ([3]; SD, rat, liver microsomes, pH 7.4, SD rat liver microsomes, read-out: t1/2 (in vitro metabolic half-life in liver microsomes)): 2.96 h
- Ln (area%) ([3]; incubation 0 min): 4.61
- Area% (remaining percentage) ([3]; incubation 0 min, 0 min regarded as 100%): 100%
- Ln (area%) ([3]; incubation 5 min): 4.59
- Area% (remaining percentage) ([3]; incubation 5 min): 98.69%
- Ln (area%) ([3]; incubation 15 min): 4.46
- Area% (remaining percentage) ([3]; incubation 15 min): 86.70%
- Ln (area%) ([3]; incubation 30 min): 4.41
- Area% (remaining percentage) ([3]; incubation 30 min): 82.34%
- Ln (area%) ([3]; incubation 45 min): 4.36
- Area% (remaining percentage) ([3]; incubation 45 min): 77.93%
- Ln (area%) ([3]; incubation 60 min): 4.22
- Area% (remaining percentage) ([3]; incubation 60 min): 68.01%
- Ln (area%) ([3]; incubation 90 min): 4.21
- Area% (remaining percentage) ([3]; incubation 90 min): 67.21%
- Ln (area%) ([3]; incubation 120 min): 4.14
- Area% (remaining percentage) ([3]; incubation 120 min): 62.76%
- metabolic stability in liver microsomes ([3]; rat liver microsomes): good
- prototype in plasma and urine after gavage ([1]; oral gavage 200 mg/kg, 200 mg/kg): no prototype components were found; also recorded: not detected in the original form
- marein in plasma after intragastric administration ([1]; preliminary experiments of the team): no marein was found in plasma
- prototype components after tail vein injection [2]: detected
- Location (matrix in which the metabolite was detected) [2]: P, U
- marein in blood after drinking C. tinctoria tea [4]: no marein is detected

The next lines start with the values.

- Location (matrix in which the metabolite was detected) [1]: P
- Location (matrix in which the metabolite was detected) ([2]; listed as M′10): P, U
Structure (SMILES): O=c1cc(-c2ccc(O)c(O)c2)oc2c(O)c(O[C@@H]3O[C@H](CO)[C@@H](O)[C@H](O)[C@H]3O)ccc12 [M13]

- Location (matrix in which the metabolite was detected) [1]: P
- Location (matrix in which the metabolite was detected) [2]: U
Structure (SMILES): O=C(/C=C/c1ccc(O)c(O)c1)c1ccc(O)c(O)c1O [M24, okanin]
